Data set [1] deals with SK-MEL-28. Briefly: Combination protocol for apoptosis, SK-MEL-28. Type of data set: cell-based, human. The method, then: (§1) After incubation of the cells with compound(s) with or without 1 ng/ml TNF-α (R&D Systems) for 24 h in a CO2 incubator at 37° C., cells were harvested by trypsinisation. The cell pellet from the 24-well plate was resuspended in 100 μl FACS buffer (PBS+1% fetal bovine serum). NucView488 reagent (from Biotium) was added to a final concentration of 2 μM. The plate was incubated in the dark for 30 minutes before measuring fluorescent stained cells in a Guava easyCyte HT cytometer (Millipore). Cleaved caspase-3 staining was recorded in the FL1 channel, with unstained and DMSO control wells being used to set the gated stained and unstained cell populations.

In data set [2] the test system is A375. Description: Combination protocol for apoptosis, A375. Format: cell-based, human. The following applies: for % Apoptosis Combination / % Apoptosis Example 2 alone*: 24 h. The method, then: as §1, with “Melanoma cell lines were plated out in duplicate wells of 24-well plates at 0.5×10^6 cells/ml the day before treatment to allow them to adhere. After” for “After”
No increase in apoptosis was seen over this time scale with the combination agent shown in the first column of the table alone (with or without TNF-α)—data not shown.

A further data set concerns MALME-3M. Briefly: Apoptosis induction (cleaved caspase-3 cytometry), MALME-3M. Type of data set: cell-based, human. The following applies: 1 μM Example 2 plus 1 ng/ml TNF-α, 24 hour. How it is done: as §1, with “Melanoma cell lines were plated out in duplicate wells of 24-well plates at 0.5×10^6 cells/ml the day before treatment to allow them to adhere. After” for “After”

In data set [3] the test system is SK-MEL-28. Description: Apoptosis induction (cleaved caspase-3 cytometry), SK-MEL-28. Format: cell-based, human. The following applies: 1 μM Example 2 plus 1 ng/ml TNF-α, 24 hour. How it is done:
as §1, with “Melanoma cell lines were plated out in duplicate wells of 24-well plates at 0.5×10^6 cells/ml the day before treatment to allow them to adhere. After” for “After”

A further data set deals with WM-266-4. Description: Apoptosis induction (cleaved caspase-3 cytometry), WM-266-4. Type of data set: cell-based, human. The following applies: 1 μM Example 2 plus 1 ng/ml TNF-α, 24 hour, dihydrochloride. The method, then:
as §1, with “Melanoma cell lines were plated out in duplicate wells of 24-well plates at 0.5×10^6 cells/ml the day before treatment to allow them to adhere. After” for “After”

A further data set concerns SK-MEL-5. Briefly: Apoptosis induction (cleaved caspase-3 cytometry), SK-MEL-5. Type of data set: cell-based, human. The following applies: 1 μM Example 2 plus 1 ng/ml TNF-α, 24 hour. How it is done:
as §1, with “Melanoma cell lines were plated out in duplicate wells of 24-well plates at 0.5×10^6 cells/ml the day before treatment to allow them to adhere. After” for “After”

Data set [4] deals with A375. Briefly: Apoptosis induction (cleaved caspase-3 cytometry), A375. The following applies: 1 μM Example 2 plus 1 ng/ml TNF-α, 24 hour. Type of data set: cell-based, human. How it is done: as §1, with “Melanoma cell lines were plated out in duplicate wells of 24-well plates at 0.5×10^6 cells/ml the day before treatment to allow them to adhere. After” for “After”
In a further data set the test system is SK-MEL-2. Briefly: Apoptosis induction (cleaved caspase-3 cytometry), SK-MEL-2. Format: cell-based, human. The following applies: 1 μM Example 2 plus 1 ng/ml TNF-α, 24 hour. The method, then:
as §1, with “Melanoma cell lines were plated out in duplicate wells of 24-well plates at 0.5×10^6 cells/ml the day before treatment to allow them to adhere. After” for “After”

The next data set has as its system WM-115. Description: Apoptosis induction (cleaved caspase-3 cytometry), WM-115. The following applies: 1 μM Example 2 plus 1 ng/ml TNF-α, 24 hour, dihydrochloride. Format: cell-based, human. How it is done: as §1, with “Melanoma cell lines were plated out in duplicate wells of 24-well plates at 0.5×10^6 cells/ml the day before treatment to allow them to adhere. After” for “After”

For a further data set, the system named is RPMI-7951. Description: Apoptosis induction (cleaved caspase-3 cytometry), RPMI-7951. Format: cell-based, human. The following applies: 1 μM Example 2 plus 1 ng/ml TNF-α, 24 hour. How it is done:
as §1, with “Melanoma cell lines were plated out in duplicate wells of 24-well plates at 0.5×10^6 cells/ml the day before treatment to allow them to adhere. After” for “After”

Data set [5] relates to MDA-MB-231 (human breast carcinoma). Briefly: Anti-proliferative activity, Alamar Blue assay, MDA-MB-231. The following applies: proliferation, 72 hours compound. Type of data set: cell-based. The method, then:
(§2) The method is based on the ability of viable cells to reduce resazurin to its fluorescent product resorufin. For each proliferation assay cells are plated onto 96 well plates and allowed to recover for 16 hours prior to the addition of inhibitor compounds (in 0.1% DMSO v/v) for a further 72 hours.
(§3) The anti-proliferative activities of compounds of the invention can be determined by measuring the ability of the compounds to inhibit growth in 3 cancer cell lines: • EVSA-T (human breast carcinoma) DSMZ cat. no.
Background: Resazurin is reduced to fluorescent resorufin, in cell work by metabolically active cells.

The next data set concerns the target T1, hERG ion channel (Homo sapiens, UniProt Q12809).
T1 construct: expressed in transfected cells; host or cells: CHO K1
Briefly: Population Patch Clamp (PPC) hERG assay in CHO K1 cells. Format: cell-based. How it is done:
Inhibition of the hERG channel was measured by automated patch clamp assay in CHO K1 cells, stably transfected with the hERG ion channel. PPC measurements were performed using an IonWorks Quattro instrument (Molecular Devices Corporation, Union City, CA) using a 384 well PatchPlate (Molecular Devices Corporation) with 64 apertures per well. Each concentration of test compound was tested in duplicate wells. Amphotericin B was used to obtain electrical access to the cell interior at a final concentration of 200 μg/mL. Human ether-à-gogo related gene (hERG) currents were measured with a prepulse to +40 mV (2 s) from the holding potential of −80 mV, followed by a step to −50 mV (2 s) to elicit the deactivating tail currents, before returning to the holding potential for 1s. Compounds were incubated for 600s between the pre- and post-compound reads. The external recording solution used was 130 mM Na Gluconate, 20 mM NaCl, 4 mM KCl, 1 mM MgCl2, 1.8 mM CaCl2, 10 mM Hepes, 5 mM Glucose, pH to 7.3 with NaOH. All data were filtered for seal quality, seal drop, and current amplitude. The maximum current amplitude of the 3rd pulse tail current was calculated before (Pre) and after (Post) compound addition and the amount of block assessed by dividing the Post-compound current amplitude by the Pre-compound current amplitude.
On the technique in general: Patch clamp records ionic current or voltage across a cell membrane.

The target in data set [6] is T2, XIAP-Caspase-9 in HEK293-XIAP-Caspase-9 cells (Homo sapiens, UniProt P98170).
T2 construct: FLAG; expressed in transfected cells
T2 sequence (P98170 whole entry): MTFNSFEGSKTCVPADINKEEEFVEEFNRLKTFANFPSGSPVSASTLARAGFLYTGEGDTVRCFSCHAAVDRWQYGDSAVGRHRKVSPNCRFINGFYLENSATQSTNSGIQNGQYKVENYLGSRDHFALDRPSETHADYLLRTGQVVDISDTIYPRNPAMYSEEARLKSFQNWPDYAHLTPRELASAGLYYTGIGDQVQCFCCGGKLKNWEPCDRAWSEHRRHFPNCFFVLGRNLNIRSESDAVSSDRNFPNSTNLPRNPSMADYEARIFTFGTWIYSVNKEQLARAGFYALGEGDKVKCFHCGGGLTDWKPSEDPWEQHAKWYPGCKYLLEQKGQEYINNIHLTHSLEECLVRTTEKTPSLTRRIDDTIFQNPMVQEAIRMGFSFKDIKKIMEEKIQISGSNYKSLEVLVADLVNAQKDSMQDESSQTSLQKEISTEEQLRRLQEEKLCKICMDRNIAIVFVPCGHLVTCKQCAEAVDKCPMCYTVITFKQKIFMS
Description: HEK293-XIAP-Caspase-9 immunoprecipitation (IP) MSD assay. Type of data set: cell-based. The following applies: compound 2 h at 37° C.; read-out: HEK293-X-C9 IP. The method, then:
Stable HEK293-XIAP-Caspase-9 cells were plated out into 96-well plates [200 μl/well at 1×10^6 cells/mL in cultured complete medium (DMEM+10% FBS+0.5 mg/mL Geneticin (Invitrogen)] and left overnight at 37° C. to recover. Compounds were added to duplicate wells in 0.1% DMSO for 2 h at 37° C. Cells were lysed in 50 μl 1×MSD lysis buffer (1% Triton X-100 in 20 mM Tris·Cl (pH 7.6), 150 mM NaCl including protease inhibitors) for 20 min rocking at room temperature. Streptavidin high bind MSD plate (L15SB-2) were coated with biotinylated anti-FLAG M2 antibody (Sigma F9291) at 25 μl/well with a 5 μg/mL dilution of antibody in PBS for 1 h, shaking; followed by blocking for 1 h with 150 μl 3% BSA/TBST. Cell lysate (25 μl) was added to the 96-well anti-FLAG coated MSD plate and placed on shaker for 4 h at room temperature. […] Plates were washed 4 times with 150 μl TBST, and 150 μl/well 1×MSD read buffer (R92TC-2) added before reading each plate.
EC50 values were determined from dose-response plots using nonlinear least-squares analysis.

Data set [7] deals with EVSA-T (human breast carcinoma). Briefly: Anti-proliferative activity, Alamar Blue assay, EVSA-T. Format: cell-based. The following applies: 72 hours compound, read-out: EVSA-T prolif. The method, then:
as §2, §3

The source of these data is patent publication US12202828B2, “Bicyclic heterocycle compounds and their uses in therapy” (ASTEX THERAPEUTICS LIMITED, priority 2013, dated 2025).

Several values for one entry are separate records, joined by “and”; a condition that tells them apart may be missing. Identical values can stand only once. Counter-ions that a name gives are not always drawn. Like-named read-outs stand apart in the source and are kept apart here.

T1 sequence (Q12809 whole entry): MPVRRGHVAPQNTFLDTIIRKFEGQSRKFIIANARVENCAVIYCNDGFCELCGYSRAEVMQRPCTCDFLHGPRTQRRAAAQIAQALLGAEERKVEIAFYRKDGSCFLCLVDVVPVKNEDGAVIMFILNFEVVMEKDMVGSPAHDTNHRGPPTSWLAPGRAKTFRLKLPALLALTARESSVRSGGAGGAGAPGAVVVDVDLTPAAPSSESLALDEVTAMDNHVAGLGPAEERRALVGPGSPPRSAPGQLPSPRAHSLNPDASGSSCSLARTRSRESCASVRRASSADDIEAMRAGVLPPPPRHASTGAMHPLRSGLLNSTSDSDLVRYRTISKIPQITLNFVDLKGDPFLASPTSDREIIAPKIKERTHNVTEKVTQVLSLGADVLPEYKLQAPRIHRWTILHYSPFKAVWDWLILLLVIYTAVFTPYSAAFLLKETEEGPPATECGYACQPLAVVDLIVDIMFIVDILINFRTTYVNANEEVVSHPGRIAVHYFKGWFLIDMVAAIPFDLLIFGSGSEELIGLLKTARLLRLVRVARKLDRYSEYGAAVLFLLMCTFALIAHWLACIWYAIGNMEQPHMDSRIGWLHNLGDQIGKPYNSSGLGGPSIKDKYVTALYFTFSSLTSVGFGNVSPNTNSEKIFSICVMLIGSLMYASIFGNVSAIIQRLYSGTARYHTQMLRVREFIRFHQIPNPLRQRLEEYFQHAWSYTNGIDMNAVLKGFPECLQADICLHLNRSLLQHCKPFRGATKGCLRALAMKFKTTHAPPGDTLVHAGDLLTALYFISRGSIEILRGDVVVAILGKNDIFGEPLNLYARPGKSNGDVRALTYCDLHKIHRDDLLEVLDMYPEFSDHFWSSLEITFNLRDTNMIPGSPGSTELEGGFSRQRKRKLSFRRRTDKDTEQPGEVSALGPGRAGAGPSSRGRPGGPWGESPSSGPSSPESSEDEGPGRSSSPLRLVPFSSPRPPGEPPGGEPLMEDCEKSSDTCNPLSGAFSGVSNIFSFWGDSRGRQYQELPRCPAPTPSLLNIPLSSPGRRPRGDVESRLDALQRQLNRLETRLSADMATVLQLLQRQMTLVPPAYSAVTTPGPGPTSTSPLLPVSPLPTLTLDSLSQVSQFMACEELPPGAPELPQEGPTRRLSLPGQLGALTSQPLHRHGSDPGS

In the case of `CCCS(=O)(=O)Nc1ccc(F)c(C(=O)c2c[nH]c3ncc(-c4ccc(Cl)cc4)cc23)c1F` [Vemurafenib, reference compound], the “% Apoptosis Combination” value in the data set with SK-MEL-28 [1] (agent 1 μM with Example 2 1 μM + 1 ng/ml TNF-α, 24 h) stood at 87.3%; in the data set on A375 [2] (agent 4 μM with Example 2 1 μM + 1 ng/ml TNF-α), 61.3%. For the same compound, the “Fold Increase” value stood at 1.7 in the data set with SK-MEL-28 [1] (combination (agent 1 μM) relative to Example 2 1 μM + TNF-α alone) and 2.0 in the data set with A375 [2] (combination (agent 4 μM) relative to Example 2 1 μM + TNF-α alone).
On to `C[C@@H]1CN(CC(=O)N2CC(C)(C)c3nc(CO)c(Cc4ccc(F)cc4)cc32)[C@@H](CN2CCOC[C@H]2C)CN1` [Example 2, 1-{6-[(4-Fluorophenyl)methyl]-5-(hydroxymethyl)-3,3-dimethyl-1H,2H,3H-pyrrolo[3,2-b]pyridin-1-yl}-2-[(2R,5R)-5-methyl-2-{[(3R)-3-methylmorpholin-4-yl]methyl}piperazin-1-yl] ethan-1-one dihydrochloride], for which the “% Apoptosis Example 2 alone*” value in the data set on SK-MEL-28 [1] (Example 2 0.1 μM + 1 ng/ml TNF-α, 24 h) is given as 42.2 (0.1 μM) %; with A375 [2] (Example 2 0.1 μM + 1 ng/ml TNF-α) it was 14.4 (0.1 μM) %; with A375 [2] (Example 2 1 μM + 1 ng/ml TNF-α) it was 31.2 (1 μM) %. The “% Cleaved Caspase-3” value turned out to be 29.5% with MALME-3M; 63.2% in the data set on SK-MEL-28 [3]; 13.2% in the data set on WM-266-4; 52.8% with SK-MEL-5; 26.5% in the data set on A375 [4]; 49.5% with SK-MEL-2. Also, the “% Cleaved Caspase-3” value in the data set with WM-115 was 16.7%; in the data set on RPMI-7951, 44.0%.
For the compound `CCCCn1cc2c(cc1=O)C(C)(C)CN2C(=O)CN1C[C@@H](C)NC[C@@H]1CN1[C@H](C)COC[C@H]1C` [Example 35, 6-Butyl-1-{2-[(2R,5R)-2-{[(3R,5R)-3,5-dimethylmorpholin-4-yl]methyl}-5-methylpiperazin-1-yl]acetyl}-3,3-dimethyl-1H,2H,3H,5H,6H-pyrrolo[2,3-c]pyridin-5-one dihydrochloride], the EC50 in data set [5] (Homo sapiens, MDA-MB-231, 72 h) amounted to 130 nM; in data set [6], 13 nM; in [7] (Homo sapiens, EVSA-T, 72 h), 16 nM. In addition, on hERG ion channel (@ 1000 μM), the “hERG PPC (PI)” value was determined as 53% @ 1000.
On to `COC(CO)c1nc2c(cc1Cc1ccc(F)cc1)N(C(=O)CN1C[C@@H](C)NC[C@@H]1CN1[C@H](C)COC[C@H]1C)CC2(C)C` (single isomer, unassigned) [Example 36, 2-[(2R,5R)-2-{[(3R,5R)-3,5-Dimethylmorpholin-4-yl]methyl}-5-methylpiperazin-1-yl]-1-{6-[(4-fluorophenyl)methyl]-5-((R or S)-2-hydroxy-1-methoxyethyl)-3,3-dimethyl-1H,2H,3H-pyrrolo[3,2-b]pyridin-1-yl}ethan-1-one], for which the EC50 in data set [5] (Homo sapiens, MDA-MB-231, 72 h) is 2.5 nM; in data set [5] it was 2.7 nM; in data set [6] it was 2.6 nM and 4.2 nM; in [7], 0.48 nM; in data set [7] (Homo sapiens, EVSA-T, 72 h), 0.38 nM. Besides, the IC50 (commonly the concentration at which inhibition is half-maximal) on hERG ion channel (CHO K1 cells stably transfected with hERG) stood at 420000 nM.
`CCCCc1cc2c([nH]c1=O)C(C)(C)CN2C(=O)CN1C[C@@H](C)NC[C@@H]1CN1C[C@H](C)OC[C@H]1C` [Example 37, 6-Butyl-1-{2-[(2R,5R)-2-{[(2S,5R)-2,5-dimethylmorpholin-4-yl]methyl}-5-methylpiperazin-1-yl]acetyl}-3,3-dimethyl-1H,2H,3H,4H,5H-pyrrolo[3,2-b]pyridin-5-one dihydrochloride]: the EC50 in [5] (Homo sapiens, MDA-MB-231, 72 h) amounted to 18 nM; in data set [6] it was 7.4 nM; in data set [7] (Homo sapiens, EVSA-T, 72 h), 3.2 nM. On hERG ion channel (@ 500 μM), the “hERG PPC (PI)” value turned out to be 63% @ 500.
Turning to `CC(=O)Nc1cccc(-n2c(=O)n(C3CC3)c(=O)c3c(Nc4ccc(I)cc4F)n(C)c(=O)c(C)c32)c1` [Trametinib], the “% Apoptosis Combination” value in the data set with A375 [2] (agent 0.1 μM with Example 2 0.1 μM + 1 ng/ml TNF-α) is reported as 52.3%. The “Fold Increase” value in the data set with A375 [2] (combination (agent 0.1 μM) relative to Example 2 0.1 μM + TNF-α alone) is given as 3.6.
